Data reported in patent US8841290B2, “Substituted tetrahydronaphthalenes, method for the production thereof, and use thereof as drugs” (Sanofi, priority 2009, dated 2014).
pIC50: −log10 of the molar value. Values after ≈ are worked out from the molar mass of the structure shown. Where two headings read alike, the source gives them in different places.

Experiments:
human MCH receptor = molecular target: T1, human MCH receptor (Homo sapiens, UniProt Q99705); experiment: calcium mobilization assay (FLIPR), functional IC50 of MCH1R antagonists; format: cell-based
T1 construct: expressed in transfected cells
Source text: A difference from the reference was, however, the use of the plasmid pEAK8 from EDGE Biosystems (USA) for the construction of the expression vector. The host used for the transfection was a transformed HEK cell line named “PEAK Stable Cells” (likewise from EDGE Biosystems). Functional measurements of the cellular calcium flux after addition of agonist (MCH) in the presence of ligand of the invention took place with the aid of the FLIPR apparatus from Molecular Devices (USA), using protocols of the apparatus manufacturer.

[1] = nephelometric (kinetic) solubility determination, phosphate buffer pH 7.4; format: physicochemical; conditions: aqueous buffer, kinetic from dmso stock, nephelometric, Table 7
Procedure: A DMSO solution of the test compound (2.5 mM; 0.5 μl) is pipetted into 200 μl of an aqueous test solution (e.g. phosphate-buffered saline, 10×, 1M, Sigma, adjusted to 10 mM, pH 7.4) in a 96-well microtiter plate, and the turbidity is measured at the resulting theoretical concentration for the test compound of 6.25 μM using a nephelometer (e.g. Nephelostar Galaxy, BMG Labtech). The concentration of the test compound in the aqueous test solution is then raised to a theoretical 12.5 μM by adding further DMSO solution (2.5 mM; 0.5 μl), and the turbidity measurement is repeated. Further additions of DMSO solutions (1 μl, 2.5 mM; 0.5 μl, 10 mM; then 9×1 μl, 10 mM resulting in theoretical concentrations of 25 μM, 50 μM, 100 μM, 150 μM, 200 μM, 250 μM, 300 μM, 350 μM, 400 μM, 450 μM and 500 μM) with turbidity measurement in between complete the measurement process.
Evaluation: The turbidity values from the nephelometer are plotted against the theoretical concentration of the test compound in the aqueous test solution. As soon as a significant turbidity is detected (e.g. 5 times above the control value of the aqueous test solution) at a theoretical concentration, the level of concentration below this is stated to be the solubility limit of the test compound in the test solution. Thus, the maximum possible measurement range emerges as values<6.25 μM, 6.25-500 μM and >500 μM.

[2] = recombinant HEK293 cell line expressing the human MCH receptor, calcium flux after addition of agonist (MCH), read-out: IC50

T1 sequence (Q99705 whole entry): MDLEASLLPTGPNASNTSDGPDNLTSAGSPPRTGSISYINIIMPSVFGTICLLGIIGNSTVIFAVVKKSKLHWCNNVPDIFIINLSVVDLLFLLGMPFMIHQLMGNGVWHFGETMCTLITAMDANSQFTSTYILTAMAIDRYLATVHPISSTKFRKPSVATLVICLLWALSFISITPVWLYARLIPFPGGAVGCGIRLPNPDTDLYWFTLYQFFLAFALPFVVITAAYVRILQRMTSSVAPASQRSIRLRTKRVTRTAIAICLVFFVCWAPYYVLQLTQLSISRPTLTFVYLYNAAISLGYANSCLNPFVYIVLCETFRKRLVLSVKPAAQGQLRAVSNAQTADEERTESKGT

pIC50 (human MCH receptor; [2]) | solubility kinetic [1] [µg/mL] | pIC50 (human MCH receptor) | Structure (SMILES)
5.88 | > 294 | – | CN(C(=O)c1ccc(C2CCCCC2)cc1)[C@H]1CCc2cc(CNCC3CCOCC3)ccc2C1 [Example 2-01, 4-Cyclohexyl-N-methyl-N—((S)-6-{[(tetrahydropyran-4-ylmethyl)amino]methyl}-1,2,3,4-tetrahydronaphthalen-2-yl)benzamide]
6.87 | > 273 | – | C[C@H]1CC[C@H](c2ccc3c(c2)CC[C@H](N(C)C(=O)c2ccc(OCC4CC4)cc2)C3)N1C [Example 5-04]
6.81 | > 288 | – | CN(C(=O)c1ccc(OCC2CC2)cc1)[C@H]1CCc2cc(CNCC3CCCOC3)ccc2C1 (stereo partly drawn) [Example 1-07]
6.77 | < 4 | – | O=C(N[C@H]1CCc2cc(CN3CCCCCC3)ccc2C1)c1ccc(OCC2CCC2)cc1 [Example 6-08]
6.87 | > 221 | – | CN(C(=O)c1ccc(OCC2CC2)cc1)[C@H]1CCc2cc([C@H]3CCCN3)ccc2C1 [Example 4-01, 4-Cyclopropylmethoxy-N-methyl-N—((S)—(R)-6-pyrrolidin-2-yl-1,2,3,4-tetrahydronaphthalen-2-yl)benzamide]
6.08 | > 279 | – | CN(C(=O)c1ccc(OCC2CC2)cc1)[C@H]1CCc2cc(CN3C[C@@H]4CC[C@H]3C4)ccc2C1 [Example 7-02]
7.03 | 3 (≈ 6.93 µM) | – | O=C(N[C@H]1CCc2cc(CN3CCCCCC3)ccc2C1)c1ccc(OCC2CC2)cc1 [Example 7-12]
6.81 | > 281 | – | CN(C(=O)c1ccc(OCC2CC2)cn1)[C@H]1CCc2cc(CNCC3CCCC3)ccc2C1 [Example 7-30]
6.82 | 199 (≈ 475 µM) | – | CN(C(=O)c1ccc(OCC2CC2)cc1)[C@H]1CCc2cc(CN3CCCC3)ccc2C1 [Example 6-05]
– | < 4 | 6.48 | O=C(N[C@H]1CCc2cc(CN3CCCCCC3)ccc2C1)c1ccc(NC(=O)C2CCCC2)cc1 [Example 6-07]
5.43 | 15 (≈ 30.6 µM) | – | O=C(N[C@H]1CCc2cc(CNCC3CCOCC3)ccc2C1)c1ccc(NC(=O)C(F)(F)F)cc1 [Example 2-04]
6.59 | 137 (≈ 315 µM) | – | CC(C)CCNCc1ccc2c(c1)CC[C@H](N(C)C(=O)c1ccc(OCC3CC3)cc1)C2 [Example 7-16]
6.25 | > 282 | – | CCC(COC)NCc1ccc2c(c1)CC[C@H](N(C)C(=O)c1ccc(OCC3CC3)cc1)C2 (stereo partly drawn) [Example 7-19]
6.61 | 15 (≈ 31.5 µM) | – | CC1CCN(c2ccc(C(=O)N[C@H]3CCc4cc(CNCC5CCOCC5)ccc4C3)cc2)CC1 [Example 2-05]
6.29 | > 281 | – | CN(C(=O)c1ccc(OCC2CC2)cc1)[C@H]1CCc2cc(CN3CCC(O)CC3)ccc2C1 [Example 7-06]
6.82 | > 273 | – | CCN1CCC[C@@H]1c1ccc2c(c1)CC[C@H](N(C)C(=O)c1ccc(OCC3CC3)cc1)C2 [Example 5-02]
6.78 | > 288 | – | CC1CCC(CNCc2ccc3c(c2)CC[C@H](N(C)C(=O)c2ccc(OCC4CC4)cc2)C3)O1 (stereo partly drawn) [Example 1-12]
7.12 | 28 (≈ 62.7 µM) | – | O=C(N[C@H]1CCc2cc(CN3CCCCCC3)ccc2C1)c1ccc(COC2CCC2)cc1 [Example 6-06]
7.03 | 7 (≈ 16.6 µM) | – | CC(C)(C)CNCc1ccc2c(c1)CC[C@H](NC(=O)c1ccc(OCC3CC3)cc1)C2 [Example 7-13]
6.90 | > 281 | – | CN(C(=O)c1ccc(OCC2CC2)cc1)[C@H]1CCc2cc(CNCC3(C)COC3)ccc2C1 [Example 1-05]
6.43 | > 280 | – | CCN1CCCCC1c1ccc2c(c1)CC[C@H](N(C)C(=O)c1ccc(OCC3CC3)cc1)C2 (stereo partly drawn) [Example 5-07]
6.29 | 30 (≈ 61.1 µM) | – | CCN(Cc1ccc2c(c1)CC[C@H](N(C)C(=O)c1ccc(OCC3CC3)cc1)C2)CC1CCOCC1 [Example 1-14]
6.91 | > 289 | – | CN(C(=O)c1ccc(OCC2CC2)cc1)[C@H]1CCc2cc(CNCC3COCCO3)ccc2C1 (stereo partly drawn) [Example 1-09]
6.20 | > 288 | – | COC1CCN(Cc2ccc3c(c2)CC[C@H](N(C)C(=O)c2ccc(OCC4CC4)cc2)C3)CC1 [Example 7-05]
6.10 | 10 (≈ 23.9 µM) | – | CN(C(=O)c1ccc(OCC2CC2)cc1)[C@H]1CCc2cc(C3CCCCN3)ccc2C1 (stereo partly drawn) [Example 4-03, 4-Cyclopropylmethoxy-N-methyl-N—((S)-6-piperidin-2-yl-1,2,3,4-tetrahydronaphthalen-2-yl)-benzamide]
6.85 | > 290 | – | CCCCOc1ccc(C(=O)N(C)[C@H]2CCc3cc(CNCC4CCOCC4)ccc3C2)nc1 [Example 2-07]
6.85 | > 302 | – | CN(C(=O)c1ccc(OCC2CC2)cc1)[C@H]1CCc2cc(CN3CCC(C(C)(C)O)CC3)ccc2C1 [Example 7-04]
6.94 | > 281 | – | CN(C(=O)c1ccc(OCC2CC2)cc1)[C@H]1CCc2cc(CNCC3CCOC3)ccc2C1 (stereo partly drawn) [Example 1-04]
5.86 | > 286 | – | CN(C(=O)c1ccc(OCC2CC2)cc1)[C@H]1CCc2cc(CN3CC4CCC3CC4)ccc2C1 [Example 7-03]
6.58 | > 259 | – | CN(C(=O)c1ccc(OCC2CC2)cc1)[C@H]1CCc2cc(CN3CCC3)ccc2C1 [Example 7-09]
